ChEMBL document CHEMBL1201862, “PubChem BioAssay data set” (2004)
Active and inactive are the calls of the source.

Key:
[1] = cytotoxicity in HEK-293T cells, dose response, cytotoxicity control for TCR NF-kB inhibitor project, luminescence, T-cell screen hits (AID 489026); format: functional, cell-based;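 note: cells exposed to compound about 14 hours before the viability readout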
Vero = assay: cells; format: functional; settings: Chlorocebus sabaeus
[2] = growth suppression of PTEN-null colon cells, dose response, cell-based, HCT116 PTEN knockout (AID 1047); format: functional;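 note: HCT116 colon tumor cells with PTEN knocked out; cells exposed to compound for 60 hours before readout; potency for loss of cell viability measured by luminescence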
[3] = growth suppression of beta-catenin-knockout colon cells, dose response, cell-based, HCT116, human colon tumor (AID 1045); format: functional;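 note: HCT116 colon tumor cells with beta catenin knocked out; cells exposed to compound for 60 hours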
Cytochrome P450 2C9 = Cytochrome P450 2C9 (Homo sapiens, UniProt P11712)
Sequence of Cytochrome P450 2C9 (P11712 whole entry): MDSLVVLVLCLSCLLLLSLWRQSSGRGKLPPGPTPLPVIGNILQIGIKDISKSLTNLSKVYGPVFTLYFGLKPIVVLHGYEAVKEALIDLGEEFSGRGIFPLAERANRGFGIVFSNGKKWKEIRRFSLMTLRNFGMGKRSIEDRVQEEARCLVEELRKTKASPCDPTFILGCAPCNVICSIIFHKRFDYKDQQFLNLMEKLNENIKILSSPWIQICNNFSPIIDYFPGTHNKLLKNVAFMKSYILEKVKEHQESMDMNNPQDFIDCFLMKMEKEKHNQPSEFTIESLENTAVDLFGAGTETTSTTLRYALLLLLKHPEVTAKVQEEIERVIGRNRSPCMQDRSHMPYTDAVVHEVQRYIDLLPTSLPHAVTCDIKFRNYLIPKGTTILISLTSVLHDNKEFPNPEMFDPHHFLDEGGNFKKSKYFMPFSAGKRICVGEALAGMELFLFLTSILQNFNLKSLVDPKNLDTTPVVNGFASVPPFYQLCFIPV

[4] = inhibitors of SNCA 5'UTR-driven reporter translation, confirmation, H4 neuroglioma cells, luminescence (AID 1988); format: functional, cell-based
[5] = Luminescence Cell-Based Dose Response HTS to Identify Inhibitors of 5'UTR Stem-Loop Driven Prion Protein mRNA Translation in H4 Neuroglioblastoma Cells. [Related pubchem assays: 1827 (Project Summary), 1813 (Primary HTS)]; format: functional
[6] = inhibitors of firefly luciferase expression or activity, dose response, H4 neuroglioma cells, luminescence (AID 1990); format: functional, cell-based
[7] = Shn3 3'UTR reporter inhibitors, dose response, cell-based, Clone20 osteoblasts, firefly luciferase, cherry-picked (AID 624132); format: functional;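 note: firefly luciferase luminescence from reporter carrying the Shn3 3'UTR in osteoblasts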
[8] = HepG2 cell cytotoxicity, dose response, cytotoxicity control for Shn3 inhibitor project, CellTiter-Glo, cherry-picked (AID 624134); format: functional, cell-based
[9] = control 3'UTR Renilla luciferase suppression, dose response, counter-screen for Shn3 inhibitor project, cell-based, Clone20-Shn3RL, cherry-picked (AID 624133); format: functional
[10] = target: T1, Sentrin-specific protease 6 (Homo sapiens, UniProt Q9GZR1); format: functional;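 note: Luminescence-based dose-response confirmatory assay of SENP6 inhibition, following up an ultra-high-throughput screen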
T1 sequence (Q9GZR1 whole entry): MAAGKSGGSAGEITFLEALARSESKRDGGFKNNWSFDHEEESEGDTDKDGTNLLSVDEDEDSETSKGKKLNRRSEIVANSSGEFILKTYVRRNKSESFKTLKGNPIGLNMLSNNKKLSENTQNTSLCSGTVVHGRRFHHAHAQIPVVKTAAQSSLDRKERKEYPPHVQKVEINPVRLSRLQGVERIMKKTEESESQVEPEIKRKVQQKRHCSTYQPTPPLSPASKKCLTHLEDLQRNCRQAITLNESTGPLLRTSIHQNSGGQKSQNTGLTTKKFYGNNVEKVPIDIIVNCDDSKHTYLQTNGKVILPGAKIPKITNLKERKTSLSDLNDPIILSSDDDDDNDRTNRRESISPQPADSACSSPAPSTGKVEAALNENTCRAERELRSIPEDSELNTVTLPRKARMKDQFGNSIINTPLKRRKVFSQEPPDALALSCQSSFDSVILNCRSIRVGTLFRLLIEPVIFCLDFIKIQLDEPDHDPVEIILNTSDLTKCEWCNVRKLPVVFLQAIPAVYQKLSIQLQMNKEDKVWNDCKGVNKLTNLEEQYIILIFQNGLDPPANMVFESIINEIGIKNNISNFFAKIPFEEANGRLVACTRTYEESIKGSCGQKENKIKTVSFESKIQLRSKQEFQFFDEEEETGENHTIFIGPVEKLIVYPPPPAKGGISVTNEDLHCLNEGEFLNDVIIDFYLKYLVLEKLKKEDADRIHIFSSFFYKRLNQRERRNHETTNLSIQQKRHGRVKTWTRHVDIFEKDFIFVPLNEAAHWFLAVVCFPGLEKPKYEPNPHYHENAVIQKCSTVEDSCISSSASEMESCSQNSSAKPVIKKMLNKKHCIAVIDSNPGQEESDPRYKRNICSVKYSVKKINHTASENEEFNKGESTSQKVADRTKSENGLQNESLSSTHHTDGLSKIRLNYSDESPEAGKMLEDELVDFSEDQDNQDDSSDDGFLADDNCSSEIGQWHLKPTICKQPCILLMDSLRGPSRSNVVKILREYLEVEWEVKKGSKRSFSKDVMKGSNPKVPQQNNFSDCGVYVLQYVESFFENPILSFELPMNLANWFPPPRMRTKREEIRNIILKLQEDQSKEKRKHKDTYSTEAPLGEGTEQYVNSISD

cells = format: functional
[11] = target: T2, Sentrin-specific protease 8 (Homo sapiens, UniProt Q96LD8); format: functional;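 note: luminescence read-out of SENP8 inhibition, dose-response confirmation following an ultra-high-throughput screen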
T2 sequence (Q96LD8 whole entry): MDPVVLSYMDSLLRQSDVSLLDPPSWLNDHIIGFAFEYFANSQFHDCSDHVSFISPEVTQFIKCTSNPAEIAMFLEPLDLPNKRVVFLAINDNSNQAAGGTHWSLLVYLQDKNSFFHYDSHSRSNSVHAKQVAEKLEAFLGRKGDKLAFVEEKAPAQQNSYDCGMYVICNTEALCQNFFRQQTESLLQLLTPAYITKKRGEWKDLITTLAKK

Caspase-3 = target: T3, Caspase-3 (Homo sapiens, UniProt P42574); format: functional;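 note: Dose-response selectivity test against caspase-3 for candidate inhibitors of sentrin-specific proteases (SENPs)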
T3 sequence (P42574 whole entry): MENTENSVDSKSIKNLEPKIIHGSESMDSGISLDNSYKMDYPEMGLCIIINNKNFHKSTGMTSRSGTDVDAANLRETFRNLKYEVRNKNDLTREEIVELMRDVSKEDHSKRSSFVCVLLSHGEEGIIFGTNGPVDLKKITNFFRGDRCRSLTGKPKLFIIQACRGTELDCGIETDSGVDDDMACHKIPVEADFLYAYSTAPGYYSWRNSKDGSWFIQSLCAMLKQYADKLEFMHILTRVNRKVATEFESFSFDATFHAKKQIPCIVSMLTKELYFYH

[12] = target: T4, Sentrin-specific protease 7 (Homo sapiens, UniProt Q9BQF6); format: functional;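 note: Luminescence-based dose-response confirmation of ultra-high-throughput screening hits, measuring inhibition of SENP7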
T4 sequence (Q9BQF6 whole entry): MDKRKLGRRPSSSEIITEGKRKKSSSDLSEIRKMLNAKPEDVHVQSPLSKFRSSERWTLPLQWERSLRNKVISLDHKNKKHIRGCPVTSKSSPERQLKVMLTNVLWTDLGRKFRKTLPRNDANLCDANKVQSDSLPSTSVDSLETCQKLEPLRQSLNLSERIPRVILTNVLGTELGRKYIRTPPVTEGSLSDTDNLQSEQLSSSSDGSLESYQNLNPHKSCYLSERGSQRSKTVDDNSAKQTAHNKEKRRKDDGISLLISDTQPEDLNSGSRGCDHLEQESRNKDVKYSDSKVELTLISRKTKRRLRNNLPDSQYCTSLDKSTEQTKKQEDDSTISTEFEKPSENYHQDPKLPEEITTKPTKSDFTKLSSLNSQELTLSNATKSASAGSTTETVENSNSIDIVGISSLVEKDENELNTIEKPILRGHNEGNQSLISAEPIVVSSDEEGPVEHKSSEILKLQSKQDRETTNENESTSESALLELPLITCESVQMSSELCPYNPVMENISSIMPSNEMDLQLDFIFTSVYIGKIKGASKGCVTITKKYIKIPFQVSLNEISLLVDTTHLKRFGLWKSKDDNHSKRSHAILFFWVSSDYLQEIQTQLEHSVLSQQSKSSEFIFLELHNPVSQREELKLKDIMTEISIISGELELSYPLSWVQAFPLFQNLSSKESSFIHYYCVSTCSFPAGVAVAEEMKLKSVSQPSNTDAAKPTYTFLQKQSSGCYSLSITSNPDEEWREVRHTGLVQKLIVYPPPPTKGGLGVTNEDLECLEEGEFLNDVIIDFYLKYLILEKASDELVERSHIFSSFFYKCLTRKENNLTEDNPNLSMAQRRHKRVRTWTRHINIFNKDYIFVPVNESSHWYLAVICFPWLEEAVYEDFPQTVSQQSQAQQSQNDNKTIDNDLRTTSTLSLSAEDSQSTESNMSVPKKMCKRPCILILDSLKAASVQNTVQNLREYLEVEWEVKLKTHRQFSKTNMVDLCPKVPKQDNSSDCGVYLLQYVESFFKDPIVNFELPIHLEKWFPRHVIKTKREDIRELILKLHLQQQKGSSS

COc1ccc([C@H]2CC(=O)C=C(c3c(OC)cccc3OC)C2)cc1
IC50 [1]: > 80 µM (inactive)

Cc1cccc(Nc2nnc(SCC(=O)NC(=O)Nc3ccc4c(c3)OCCO4)s2)c1
CC50 (Vero): > 25 µM (active)
EC50 [2]: 13 µM (active)
EC50 [3]: 9.93 µM (active)

CN(Cc1ccco1)c1cc(-c2cccc(C#N)c2)ncn1
AC50 (Cytochrome P450 2C9): inconclusive

COc1cccc(OC)c1C1=NCC(=O)Nc2c1oc1ccc(Br)cc21
EC50 [4]: 0.267 µM (active)
EC50 [5]: 0.566 µM (active)
EC50 [6]: 0.752 µM (active)
IC50 [1]: 71.8 µM (inactive)

CCc1c(C)nc2ncnn2c1NCCc1ccc(Cl)cc1
AC50 [7]: 2.17 µM (active)
AC50 [8]: 60.2 µM (active)
AC50 [9]: 3.82 µM (active)

CCOc1ccccc1C1CC(=O)Nc2cc3c(cc21)OCO3 (configuration not stated)
IC50 [1]: > 80 µM (inactive)

CCc1ccccc1NC(=O)c1ccc(-n2c(C)ccc2C)cc1
AC50 (Cytochrome P450 2C9): inconclusive

Cc1ccc(NC(=O)CSc2ccc3c(c2)OCCO3)c(O)c1
AC50 [7]: 0.343 µM (active)
AC50 [8]: 7.27 µM (active)
AC50 [9]: 0.525 µM (active)

O=C(C=Cc1ccccn1)c1ccccc1
CC50 (Vero): 9.58 µM (active)

COc1ccc(OC(=O)c2cc3ccccc3o2)cc1
IC50 [10]: > 100 µM (inactive)
IC50 (cells): 16.6 µM (active)
IC50 [11]: > 100 µM (inactive)
IC50 (Caspase-3): 33 µM (active)
IC50 [12]: 5.34 µM (active)

COc1cccc(/C=C2\CCC(C3CCCC3)C2=O)c1 (configuration not stated)
IC50 [10]: 25.5 µM (active)
IC50 [11]: 33.4 µM (active)
IC50 (Caspase-3): 27.3 µM (active)
IC50 [12]: 11.8 µM (active)
